Source: patent US8957017B2, “Dipeptoid prodrugs and their use” (Bayer Intellectual Property GmbH, priority 2007, dated 2015)
Structures can show the parent of a compound that is named as a salt.

Tests used:
[1] = test system: heart rate of anesthetized rats; assay: Influence on the heart rate of anesthetized rats; assay type: in vivo; conditions: maximum decrease in the first 30 min after i.v. bolus of 100 μg/kg of (A) or equivalent dosages; anesthetized male Wistar rats
Description: f) Determination of the Influence on the Heart Rate of Anesthetized Rats:
Male Wistar rats with a body weight above 250 g are employed. In the night before the experiment, the animals receive no feed but still have free access to drinking water. Preparation and investigations are carried out under Trapanal® anesthesia (100 mg/kg i.p.). Injection and infusion take place through a catheter in the jugular vein, and the blood pressure is recorded via a catheter in the femoral artery (transducer: Braun, Melsungen). After the preparation, the animals are connected to a continuous infusion of physiological saline solution to compensate fluid losses. Test substance or placebo solution are administered as bolus after an equilibration time of about 1 h. Heart rate and arterial blood pressure are recorded during the equilibration and over a period of at least 30 min after the bolus injection with the aid of a digital evaluation program.
Table 4 lists the maximum heart rate decrease in the first 30 min after an i.v. bolus of 100 μg/kg of the active substance (A) or of equivalent dosages of representative exemplary embodiments: […]

[2] = Determination of the solubility in 5% strength aqueous dextrose solution; assay type: physicochemical; conditions: saline or isotonic, thermodynamic from solid; for solubility thermodynamic at 24 h: room temperature
Description: a) Determination of the Solubility:
The test substance is suspended in 5% strength aqueous dextrose solution. This suspension is shaken at room temperature for 24 h. After ultracentrifugation at 224 000 g for 30 min, the supernatant is diluted with DMSO and analysed by HPLC. A two-point calibration plot of the test compound in DMSO is used for quantification.
Agilent 1100 with DAD (G1315A), quat. Pump (G1311A), autosampler CTC HTS PAL, degasser (G1322A) and column thermostat (G1316A); column: Phenomenex Gemini C18, 5 μm, 50 mm×2 mm; temperature: 40° C.; eluent A: water/phosphoric acid pH 2, eluent B: acetonitrile; flow rate: 0.7 ml/min; gradient: 0-0.5 min 85% A, 15% B; ramp 0.5-3 min 10% A, 90% B; 3-3.5 min 10% A, 90% B; ramp 3.5-4 min 85% A, 15% B; 4-5 min 85% A, 15% B.
Agilent 1100 with DAD (G1315A), quat. pump (G1311A), autosampler CTC HTS PAL, degasser (G1322A) and column thermostat (G1316A); column: VDSoptilab Kromasil 100 C18, 3.5 μm, 60 mm×2.1 mm; temperature: 30° C.; eluent A: water+5 ml of perchloric acid/liter, eluent B: acetonitrile; flow rate: 0.75 ml/min; gradient: 0-0.5 min 98% A, 2% B; ramp 0.5-4.5 min 10% A, 90% B; 4.5-6 min 10% A, 90% B; ramp 6.5-6.7 min 98% A, 2% B; 6.7-7.5 min 98% A, 2% B.

[3] = Stability in buffer at various pH values; assay type: physicochemical
Description: b) Stability in Buffer at Various pH Values:
0.3 mg of the test substance is weighed into a 2 ml HPLC vial and 0.5 ml of acetonitrile or acetonitrile/DMSO (9:1) is added. The substance is dissolved by putting the sample vessel in an ultrasonic bath for about 10 seconds. Then 0.5 ml of the respective buffer solution is added, and the sample is again treated in the ultrasonic bath.
pH 2: 0.03 mol of citric acid, 0.061 mol of sodium chloride and 0.0082 mol of hydrochoric acid ad 1 liter of water;
pH 4: 1 liter of Millipore water is adjusted to pH 4.0 with 1 N hydrochloric acid;
pH 5: 0.096 mol of citric acid and 0.2 mol of sodium hydroxide ad 1 liter of water;
pH 6: 0.06 mol of citric acid and 0.16 mol of sodium hydroxide ad 1 liter of water;
pH 7.4: 90.0 g of sodium chloride, 13.61 g of potassium dihydrogen phosphate and 83.35 g of 1 N sodium hydroxide solution are made up to 1 liter with water; this solution is then further diluted 1:10 with Millipore water.
pH 8: 0.013 mol of borax and 0.021 mol of hydrochloric acid ad 1 liter of water.
5 μl portions of the test solution are analyzed by HPLC for their content of unchanged test substance, and of parent substance (A) produced, every hour over a period of 24 hours at 37° C. The percentage areas of the appropriate peaks are used for quantification.
The ratios of the peak areas (F) at the respective time points in relation to the peak areas at the starting time are shown in Table 2 for representative exemplary embodiments: […]

[4] = i.v. pharmacokinetics in Wistar rats; assay type: in vivo; conditions: after i.v. bolus administration, male Wistar rats
Description: d) i.v. Pharmacokinetics in Wistar Rats:
(§1) On the day before administration of the substance, a catheter for obtaining blood is implanted in the jugular vein of the experimental animals (male Wistar rats, body weight 200-250 g) under Isofluran® anesthesia.
(§2) On the day of the experiment, a defined dose of the test substance is administered as solution into the tail vein using a Hamilton® glass syringe (bolus administration, duration of administration <10 s). Blood samples (8-12 time points) are taken through the catheter sequentially over the course of 24 h after administration of the substance. Plasma is obtained by centrifuging the samples in heparinized tubes. Acetonitrile is added to a defined plasma volume per time point to precipitate proteins. After centrifugation, test substance and, where appropriate, known cleavage products of the test substance in the supernatant are determined quantitatively using a suitable LC/MS-MS method.
The measured plasma concentrations are used to calculate pharmacokinetic parameters of the test substance and of the active ingredient compound (A) liberated therefrom, such as AUC, Cmax, T1/2 (half-life) and CL (clearance).

[5] = Oral pharmacokinetics in Wistar rats; assay type: in vivo; conditions: after oral administration by gavage, male Wistar rats
Description: e) Oral Pharmacokinetics in Wistar Rats:
as §1
as §2, with “stomach by gavage.” for “tail vein using a Hamilton® glass syringe (bolus administration, duration of administration <10 s).”
The measured plasma concentrations are used to calculate pharmacokinetic parameters of the test substance and of the active ingredient compound (A) liberated therefrom, such as AUC, Cmax, T1/2 (half-life).

Q: Which Heart rate decrease [1] does the source give for `N#Cc1c(N)nc(SCc2csc(-c3ccc(Cl)cc3)n2)c(C#N)c1-c1ccc(OCCO)cc1` [compound (A), 2-amino-6-({[2-(4-chlorophenyl)-1,3-thiazol-4-yl]methyl}thio)-4-[4-(2-hydroxy-ethoxy)phenyl]pyridine-3,5-dicarbonitrile, reference compound] here?
A: The Heart rate decrease was 24%.

Q: And the solubility at 24 h [2]?
A: Its solubility at 24 h is < 0.1 µg/mL.

Q: With `N#Cc1c(N)nc(SCc2csc(-c3ccc(Cl)cc3)n2)c(C#N)c1-c1ccc(OCCOC(=O)[C@@H](N)CCC(=O)NCCN)cc1` [Example 7, dihydrochloride] as the molecule, how does the Heart rate decrease [1] read?
A: Its Heart rate decrease is 15%.

Q: What about the solubility thermodynamic at 24 h [2] of the same molecule?
A: Its solubility thermodynamic at 24 h is 100 µg/mL.

Q: And the “% test substance after 4 h [F(t = 4 h) × 100/F(t = 0 h)]” value (shortened to “% test substance after 4 h”) ([3]; pH 4, 37° C.)?
A: Its value is 100%.

Q: And the “% test substance after 24 h [F(t = 24 h) × 100/F(t = 0 h)]” value (“% test substance after 24 h” for short) ([3]; pH 4, 37° C.)?
A: The value was 98%.

Q: And the “% test substance after 4 h” value ([3]; pH 7.4, 37° C.)?
A: The value was 51%.

Q: What about the “% test substance after 24 h” value ([3]; pH 7.4, 37° C.) of the same molecule?
A: Its value is 2%.

Q: And the “detectability of test substance in plasma” value [4]?
A: Its value is “no longer detectable in plasma even at the first measurement point”.

Q: Which solubility thermodynamic at 24 h [2] does the source give for `CC(C)[C@H](NC(=O)[C@@H](N)CCCNC(=N)N)C(=O)OCCOc1ccc(-c2c(C#N)c(N)nc(SCc3csc(-c4ccc(Cl)cc4)n3)c2C#N)cc1` [Example 3, 2-{4-[2-Amino-6-({[2-(4-chlorophenyl)-1,3-thiazol-4-yl]methyl}thio)-3,5-dicyanopyridin-4-yl]-phenoxy}ethyl L-arginyl-L-valinate dihydrochloride] here?
A: Its solubility thermodynamic at 24 h is 450 µg/mL.

Q: What about the “% test substance after 4 h” value ([3]; pH 4, 37° C.) of the same molecule?
A: Its value is 100%.

Q: What about the “% test substance after 24 h” value ([3]; pH 4, 37° C.) of the same molecule?
A: The value was 100%.

Q: And the “% test substance after 4 h” value ([3]; pH 7.4, 37° C.)?
A: The value was 99%.

Q: And the “% test substance after 24 h” value ([3]; pH 7.4, 37° C.)?
A: Its value is 55%.

Q: For `C[C@@H](NC(=O)[C@@H](N)CCCCN)C(=O)OCCOc1ccc(-c2c(C#N)c(N)nc(SCc3csc(-c4ccc(Cl)cc4)n3)c2C#N)cc1` [Example 12, 2-{4-[2-Amino-6-({[2-(4-chlorophenyl)-1,3-thiazol-4-yl]methyl}sulfanyl)-3,5-dicyanopyridin-4-yl]-phenoxy}ethyl L-lysyl-D-alaninate dihydrochloride], which solubility thermodynamic at 24 h [2] is on record?
A: The solubility thermodynamic at 24 h was > 500 µg/mL.

Q: What about the “% test substance after 4 h” value ([3]; pH 4, 37° C.) of the same molecule?
A: The value was 99%.

Q: What about the “% test substance after 24 h” value ([3]; pH 4, 37° C.) of the same molecule?
A: The value was 98%.

Q: What about the “% test substance after 4 h” value ([3]; pH 7.4, 37° C.) of the same molecule?
A: Its value is 49%.

Q: What about the “% test substance after 24 h” value ([3]; pH 7.4, 37° C.) of the same molecule?
A: Its value is 2%.

Q: For `N#Cc1c(N)nc(SCc2csc(-c3ccc(Cl)cc3)n2)c(C#N)c1-c1ccc(OCCOC(=O)CC[C@@H](N)C(=O)NCCN)cc1` [Example 13, 2-{4-[2-Amino-6-({[2-(4-chlorophenyl)-1,3-thiazol-4-yl]methyl}sulfanyl)-3,5-dicyanopyridin-4-yl]-phenoxy}ethyl N-(2-aminoethyl)-D-α-glutaminate dihydrochloride], which solubility thermodynamic at 24 h [2] is on record?
A: Its solubility thermodynamic at 24 h is > 500 µg/mL.

Q: And the “% test substance after 4 h” value ([3]; pH 4, 37° C.)?
A: Its value is 100%.

Q: What about the “% test substance after 24 h” value ([3]; pH 4, 37° C.) of the same molecule?
A: The value was 99%.

Q: And the “% test substance after 4 h” value ([3]; pH 7.4, 37° C.)?
A: Its value is 24%.

Q: And the “% test substance after 24 h” value ([3]; pH 7.4, 37° C.)?
A: The value was 0%.

Q: What does the source list for `N#Cc1c(N)nc(SCc2csc(-c3ccc(Cl)cc3)n2)c(C#N)c1-c1ccc(OCCOC(=O)[C@H](CO)NC(=O)[C@@H](N)CCCCN)cc1` [Example 5, 2-{4-[2-Amino-6-({[2-(4-chlorophenyl)-1,3-thiazol-4-yl]methyl}thio)-3,5-dicyanopyridin-4-yl]-phenoxy}ethyl L-lysyl-L-serinate dihydrochloride]?
A: detectability of test substance in plasma [5]: no longer detectable in plasma even at the first measurement point; Heart rate decrease [1]: 12%; solubility thermodynamic at 24 h [2]: > 500 µg/mL; % test substance after 4 h [F(t = 4 h) × 100/F(t = 0 h)] ([3]; pH 4, 37° C.): 100%; % test substance after 24 h [F(t = 24 h) × 100/F(t = 0 h)] ([3]; pH 4, 37° C.): 100%; % test substance after 4 h [F(t = 4 h) × 100/F(t = 0 h)] ([3]; pH 5, 37° C.): 100%; % test substance after 24 h [F(t = 24 h) × 100/F(t = 0 h)] ([3]; pH 5, 37° C.): 98%; % test substance after 4 h [F(t = 4 h) × 100/F(t = 0 h)] ([3]; pH 6, 37° C.): 95%; % test substance after 24 h [F(t = 24 h) × 100/F(t = 0 h)] ([3]; pH 6, 37° C.): 70%; detectability of test substance in plasma [4]: no longer detectable in plasma even at the first measurement point

Q: What does the source list for `N#Cc1c(N)nc(SCc2csc(-c3ccc(Cl)cc3)n2)c(C#N)c1-c1ccc(OCCOC(=O)CC[C@H](NC(=O)CCC(=O)O)C(=O)O)cc1` [Example 10, (2S)-5-(2-{4-[2-Amino-6-({[2-(4-chlorophenyl)-1,3-thiazol-4-yl]methyl}thio)-3,5-dicyanopyridin-4-yl]phenoxy}ethoxy)-2-[(3-carboxypropanoyl)amino]-5-oxopentanoic acid disodium salt]?
A: solubility thermodynamic at 24 h [2]: 390 µg/mL; % test substance after 24 h [F(t = 24 h) × 100/F(t = 0 h)] ([3]; pH 4, 37° C., disodium salt): 99%; % test substance after 24 h [F(t = 24 h) × 100/F(t = 0 h)] ([3]; pH 7.4, 37° C., disodium salt): 99%

Q: Which Heart rate decrease [1] does the source give for `CC(C)[C@H](NC(=O)[C@@H](N)CCCCN)C(=O)OCCOc1ccc(-c2c(C#N)c(N)nc(SCc3csc(-c4ccc(Cl)cc4)n3)c2C#N)cc1` [Example 1, 2-{4-[2-Amino-6-({[2-(4-chlorophenyl)-1,3-thiazol-4-yl]methyl}thio)-3,5-dicyanopyridin-4-yl]-phenoxy}ethyl L-lysyl-L-valinate dihydrochloride] here?
A: Its Heart rate decrease is 10%.

Q: And the solubility thermodynamic at 24 h [2]?
A: Its solubility thermodynamic at 24 h is > 500 µg/mL.

Q: And the “% test substance after 4 h” value ([3]; pH 4, 37° C.)?
A: The value was 100%.

Q: And the “% test substance after 24 h” value ([3]; pH 4, 37° C.)?
A: The value was 100%.

Q: And the “% test substance after 4 h” value ([3]; pH 6, 37° C.)?
A: The value was 100%.

Q: And the “% test substance after 24 h” value ([3]; pH 6, 37° C.)?
A: Its value is 100%.

Q: What about the “% test substance after 4 h” value ([3]; pH 7.4, 37° C.) of the same molecule?
A: Its value is 99%.

Q: What about the “% test substance after 24 h” value ([3]; pH 7.4, 37° C.) of the same molecule?
A: Its value is 96%.

Q: And the “% test substance after 4 h” value ([3]; pH 8, 37° C.)?
A: The value was 99%.

Q: What about the “% test substance after 24 h” value ([3]; pH 8, 37° C.) of the same molecule?
A: Its value is 90%.
